# In ChEMBL document CHEMBL5532636 (Eur J Med Chem, 2023):
# Assays:
# [1] = Antioxidant activity assessed as DPPH radical scavenging activity at 25 uM measured after 2 mins by ESR spectroscopy relative to control; format: functional
# [2] = molecular target: Xanthine dehydrogenase/oxidase (Bos taurus, UniProt P80457); assay: Inhibition of bovine milk xanthine oxidase using xanthine as substrate preincubated for 30 mins followed by substrate addition measured for 200 secs by spectrophotometry
# [3] = Cytotoxicity against African green monkey Vero cells incubated for 4 days by MTS assay; format: toxicity, cell-based; conditions: chlorocebus sabaeus, time 4 day
# [4] = test system: Influenza A virus; assay: Antiviral activity against Influenza A virus H1N1 FM/1/47 infected in BALB/c mouse assessed as decrease in recruitment of M1-polarized CD11b+ and F4/80+ macrophages in BALF at 80 mg/kg/day, po qd for 7 days by flow cytometry relative to control; format: functional; set-up: scale not given: the % may be the effect or the level left; conditions: time 7 day
# [5] = test system: SARS-CoV-2; assay: Antiviral activity against SARS-CoV-2 NCCP 43326 infected in African green monkey Vero cells assessed as reduction in viral infection preincubated with cell culture for 30 mins and further infected with virus measured after 72 hrs by plaque reduction neutralization test method; format: functional, organism-based; conditions: Severe acute respiratory syndrome coronavirus 2, NCCP 43326, Vero
# [6] = molecular target: Angiotensin-converting enzyme 2 (Homo sapiens) (UniProt Q9BYF1); assay: Synergistic inhibition of ACE2 in human SAEC cells at 25 uM incubated for 6 days in presence of ascorbic acid by ELISA relative to control; format: cell-based; conditions: time 6.0 day
# Chain of Angiotensin-converting enzyme 2 (Homo sapiens) (Q9BYF1 18-805 limits assumed): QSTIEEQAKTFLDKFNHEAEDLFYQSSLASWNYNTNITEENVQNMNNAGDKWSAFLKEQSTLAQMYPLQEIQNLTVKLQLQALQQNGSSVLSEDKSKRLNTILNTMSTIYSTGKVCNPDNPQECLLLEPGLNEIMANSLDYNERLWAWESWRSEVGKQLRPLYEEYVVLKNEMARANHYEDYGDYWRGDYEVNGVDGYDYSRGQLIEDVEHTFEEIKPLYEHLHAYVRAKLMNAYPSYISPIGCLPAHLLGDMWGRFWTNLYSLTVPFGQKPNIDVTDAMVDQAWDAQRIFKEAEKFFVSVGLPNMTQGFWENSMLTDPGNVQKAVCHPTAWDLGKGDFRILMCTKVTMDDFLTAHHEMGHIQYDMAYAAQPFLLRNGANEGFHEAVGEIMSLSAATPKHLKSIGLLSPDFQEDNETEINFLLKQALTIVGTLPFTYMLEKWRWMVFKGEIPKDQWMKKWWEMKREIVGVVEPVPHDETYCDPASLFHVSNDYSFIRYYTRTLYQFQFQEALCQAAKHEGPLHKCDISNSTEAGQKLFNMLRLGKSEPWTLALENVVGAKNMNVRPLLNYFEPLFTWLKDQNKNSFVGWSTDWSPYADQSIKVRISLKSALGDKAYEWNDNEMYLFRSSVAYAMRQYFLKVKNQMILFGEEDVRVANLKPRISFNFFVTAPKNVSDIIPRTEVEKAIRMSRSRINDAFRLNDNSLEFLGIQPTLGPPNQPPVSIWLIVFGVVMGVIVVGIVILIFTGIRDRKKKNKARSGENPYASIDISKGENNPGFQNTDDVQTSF
# [7] = molecular target: T1, Xanthine dehydrogenase/oxidase (Homo sapiens, UniProt P47989); assay: Inhibition of xanthine oxidase (unknown origin)
# T1 sequence (P47989 whole entry): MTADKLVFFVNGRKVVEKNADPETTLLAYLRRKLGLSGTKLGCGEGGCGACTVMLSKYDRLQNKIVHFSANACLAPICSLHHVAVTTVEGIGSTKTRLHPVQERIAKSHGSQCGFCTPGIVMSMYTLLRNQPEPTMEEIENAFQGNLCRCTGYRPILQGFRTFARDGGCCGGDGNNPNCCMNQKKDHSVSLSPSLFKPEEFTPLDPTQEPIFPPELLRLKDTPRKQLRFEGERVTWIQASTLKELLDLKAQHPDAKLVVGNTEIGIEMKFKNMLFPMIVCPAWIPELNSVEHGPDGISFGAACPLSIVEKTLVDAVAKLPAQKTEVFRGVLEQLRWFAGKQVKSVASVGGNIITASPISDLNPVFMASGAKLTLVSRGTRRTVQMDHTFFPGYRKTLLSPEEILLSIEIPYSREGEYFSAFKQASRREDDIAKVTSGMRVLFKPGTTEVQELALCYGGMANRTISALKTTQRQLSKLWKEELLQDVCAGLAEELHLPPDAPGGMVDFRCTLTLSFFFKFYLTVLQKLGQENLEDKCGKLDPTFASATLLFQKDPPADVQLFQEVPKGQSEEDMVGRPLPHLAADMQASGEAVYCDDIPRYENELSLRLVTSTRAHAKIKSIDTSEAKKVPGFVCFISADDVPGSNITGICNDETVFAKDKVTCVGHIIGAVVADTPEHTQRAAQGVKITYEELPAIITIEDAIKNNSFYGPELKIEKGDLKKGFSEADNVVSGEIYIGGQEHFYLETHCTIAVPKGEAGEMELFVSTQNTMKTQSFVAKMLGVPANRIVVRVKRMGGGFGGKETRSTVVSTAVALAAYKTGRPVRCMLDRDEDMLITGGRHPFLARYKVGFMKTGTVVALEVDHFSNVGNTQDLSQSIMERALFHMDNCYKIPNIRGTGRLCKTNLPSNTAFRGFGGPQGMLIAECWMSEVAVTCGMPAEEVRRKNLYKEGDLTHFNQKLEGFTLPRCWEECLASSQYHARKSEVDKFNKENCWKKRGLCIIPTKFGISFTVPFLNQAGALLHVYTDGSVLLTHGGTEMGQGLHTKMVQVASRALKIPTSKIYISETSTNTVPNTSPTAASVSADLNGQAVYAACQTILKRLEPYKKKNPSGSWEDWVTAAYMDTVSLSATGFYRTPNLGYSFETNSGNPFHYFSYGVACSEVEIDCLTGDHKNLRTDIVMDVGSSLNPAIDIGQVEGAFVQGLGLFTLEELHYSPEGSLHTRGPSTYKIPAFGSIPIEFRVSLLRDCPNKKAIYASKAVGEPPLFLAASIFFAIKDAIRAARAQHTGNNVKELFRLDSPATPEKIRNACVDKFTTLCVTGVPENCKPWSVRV
# [8] = test system: SARS-CoV-2; assay: Antiviral activity against SARS-CoV-2 TY/WK-521 infected in African green monkey Vero E6 cells assessed as reduction in viral replication preincubated with cell culture for 1 hr and further infected with virus for 2 hrs followed by compound washout and subsequent addition of medium containing compounds measured for 48 hrs post-infection by qRT-PCR analysis; format: functional, organism-based; conditions: Severe acute respiratory syndrome coronavirus 2, TY/WK-521, Vero C1008
# [9] = Cytotoxicity against African green monkey Vero cells; format: toxicity, cell-based; conditions: chlorocebus sabaeus
# [10] = test system: Influenza A virus; assay: Antiviral activity against Influenza A virus H1N1 FM/1/47 infected in BALB/c mouse assessed as macrophage polarization in BALF at 80 mg/kg/day, po qd for 7 days by flow cytometry (reference value: 95 %); format: functional; conditions: time 7 day
# [11] = Antioxidant activity assessed as DPPH radical scavenging activity at 50 uM measured after 2 mins by ESR spectroscopy relative to control; format: functional
# [12] = test system: SARS-CoV-2; assay: Antiviral activity against SARS-CoV-2 infected in African green monkey Vero cells assessed as reduction in viral replication; format: functional, organism-based; conditions: Severe acute respiratory syndrome coronavirus 2, Vero
# [13] = Cytotoxicity against human Calu-3 cells incubated for 4 days by MTS assay; format: toxicity, cell-based; conditions: time 4 day
# [14] = Apparent permeability in human Caco-2 cells measured for 30 to 180 mins by HPLC analysis; format: ADME, cell-based; conditions: time 30-180 min
# [15] = AUC (0 to 360 min) in Sprague-Dawley rat at 224 umol/kg, po; format: ADME; conditions: in vivo, 6 h, dose 224 µmol/kg
# [16] = Solubility of compound in water; format: physicochemical
# [17] = Inhibition of SARS-CoV-2 nsp15 endonuclease activity using 5'-FAM-dArUdAdAdA-TAMRA-3' as substrate measure for 1 hr by fluorescence based assay; set-up: species or system Severe acute respiratory syndrome coronavirus 2
# [18] = Cytotoxicity against African green monkey Vero E6 cells assessed as reduction in cell viability incubated for 3 days by MTT assay; format: toxicity, cell-based, Vero C1008; conditions: chlorocebus sabaeus, time 3 day
# [19] = molecular target: Angiotensin-converting enzyme 2 (Homo sapiens) (UniProt Q9BYF1); assay: Inhibition of ACE2 in human SAEC cells at 25 uM incubated for 6 days by ELISA relative to control; format: cell-based; conditions: time 6.0 day
# [20] = molecular target: Angiotensin-converting enzyme (Homo sapiens, UniProt P12821); assay: Inhibition of ACE (unknown origin) using Hippuryo-histidyl-leucine as substrate incubated for 40 mins by absorbance based assay
# Chain of Angiotensin-converting enzyme (P12821 whole entry): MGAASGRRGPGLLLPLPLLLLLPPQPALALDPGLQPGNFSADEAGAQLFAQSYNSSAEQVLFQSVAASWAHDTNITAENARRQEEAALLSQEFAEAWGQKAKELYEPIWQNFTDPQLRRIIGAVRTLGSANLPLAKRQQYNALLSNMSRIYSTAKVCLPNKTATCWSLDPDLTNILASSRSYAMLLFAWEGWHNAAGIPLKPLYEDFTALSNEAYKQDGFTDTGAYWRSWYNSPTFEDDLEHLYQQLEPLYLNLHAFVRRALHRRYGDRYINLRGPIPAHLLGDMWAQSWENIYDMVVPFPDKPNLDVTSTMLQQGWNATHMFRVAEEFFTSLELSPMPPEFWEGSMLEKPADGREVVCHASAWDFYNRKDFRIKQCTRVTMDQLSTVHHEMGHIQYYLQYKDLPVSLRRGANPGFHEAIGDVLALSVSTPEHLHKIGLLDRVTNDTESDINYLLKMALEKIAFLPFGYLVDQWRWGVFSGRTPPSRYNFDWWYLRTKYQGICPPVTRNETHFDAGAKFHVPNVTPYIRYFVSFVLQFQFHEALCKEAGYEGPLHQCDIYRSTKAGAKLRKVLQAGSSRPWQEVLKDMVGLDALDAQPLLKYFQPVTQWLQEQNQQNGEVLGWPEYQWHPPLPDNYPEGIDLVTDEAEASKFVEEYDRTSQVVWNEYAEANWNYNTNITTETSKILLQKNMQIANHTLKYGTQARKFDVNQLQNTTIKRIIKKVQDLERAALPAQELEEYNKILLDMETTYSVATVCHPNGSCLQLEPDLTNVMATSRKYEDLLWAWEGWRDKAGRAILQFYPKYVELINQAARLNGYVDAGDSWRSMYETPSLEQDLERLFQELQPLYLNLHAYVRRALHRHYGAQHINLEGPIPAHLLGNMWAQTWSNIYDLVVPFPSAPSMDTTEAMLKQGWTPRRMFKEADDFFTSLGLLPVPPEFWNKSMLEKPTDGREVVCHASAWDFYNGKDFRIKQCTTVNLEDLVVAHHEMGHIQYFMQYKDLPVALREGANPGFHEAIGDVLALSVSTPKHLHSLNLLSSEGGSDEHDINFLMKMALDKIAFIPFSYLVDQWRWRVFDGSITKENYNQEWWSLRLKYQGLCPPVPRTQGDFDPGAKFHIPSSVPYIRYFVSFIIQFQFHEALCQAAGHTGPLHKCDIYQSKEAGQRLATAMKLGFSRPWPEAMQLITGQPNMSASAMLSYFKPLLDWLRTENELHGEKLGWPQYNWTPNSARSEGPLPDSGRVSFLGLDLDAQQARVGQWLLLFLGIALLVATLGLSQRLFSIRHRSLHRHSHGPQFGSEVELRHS
# [21] = Cmax in Sprague-Dawley rat at 224 umol/kg, po measured for 2160 mins; format: ADME, organism-based; conditions: in vivo, 36 h, dose 224 µmol/kg
# [22] = molecular target: T2, Renin (Homo sapiens, UniProt P00797); assay: Inhibition of recombinant human renin using Arg-Glu(EDANS)-lle-His-Pro-Phe-His-Leu-Val-lle-His-Thr-Lys(dabcyl)-Arg as substrate incubated for 5 to 10 mins by fluorescence based assay
# T2 sequence (P00797 whole entry): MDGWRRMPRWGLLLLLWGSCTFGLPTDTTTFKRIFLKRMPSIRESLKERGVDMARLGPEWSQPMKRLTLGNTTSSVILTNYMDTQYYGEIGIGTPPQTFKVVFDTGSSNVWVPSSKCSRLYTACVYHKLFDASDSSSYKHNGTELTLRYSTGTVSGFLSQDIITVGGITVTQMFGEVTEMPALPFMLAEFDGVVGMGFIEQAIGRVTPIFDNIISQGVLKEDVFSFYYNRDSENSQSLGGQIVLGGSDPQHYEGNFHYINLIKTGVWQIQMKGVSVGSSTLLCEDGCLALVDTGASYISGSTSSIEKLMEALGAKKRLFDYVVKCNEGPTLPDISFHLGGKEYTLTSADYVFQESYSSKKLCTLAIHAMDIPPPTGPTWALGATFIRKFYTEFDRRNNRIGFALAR
# [23] = molecular target: T1, Xanthine dehydrogenase/oxidase; assay: Inhibition of xanthine oxidase (unknown origin) using xanthine as substrate preincubated for 30 mins followed by substrate addition by spectrophotometry
# [24] = Oral bioavailability in rat; format: ADME, organism-based; conditions: in vivo
# [25] = Oral bioavailability in monkey; format: ADME, organism-based, Macaca mulatta; conditions: rhesus monkey, in vivo
# [26] = Aqueous solubility of compound; format: physicochemical; conditions: buffer
# [27] = Cytotoxicity against African green monkey Vero cells by CCK8 assay; format: toxicity, cell-based; conditions: chlorocebus sabaeus
# [28] = test system: Severe acute respiratory syndrome coronavirus 2; assay: Binding affinity to SARS-CoV-2 nsp5 assessed as change in melting temperature preincubated for 20 mins followed by heating by thermal shift assay
# [29] = test system: SARS-CoV-2; assay: Inhibition of SARS-CoV-2 pseudovirus entry in human Huh-7 cells at 30 uM preincubated with cell culture for 1 hr followed by pseudovirus infection measured after 48 hrs by luciferase reporter gene assay relative to control; format: functional; conditions: Severe acute respiratory syndrome coronavirus 2, Huh-7, time 49 hrs
# [30] = test system: Bovine coronavirus; assay: Antiviral activity against B-CoV infected in human HRT-18 cells assessed as inhibition in viral replication at 25 ug/ml preincubated with cell culture for 1 hr and further infected with virus for 1 hr followed by removal of virus particles and subsequent replacement of medium containing compound measured for 96 hrs post-infection by RT-PCR analysis relative to control; format: functional, HRT-18 cell line; conditions: Betacoronavirus 1, HRT-18, time 98 hrs
# [31] = molecular target: Replicase polyprotein 1ab (Severe acute respiratory syndrome coronavirus 2) (UniProt P0DTD1); assay: Inhibition of full-length SARS-CoV-2 PLpro expressed in Escherichia coli BL21(DE3) using RLRGG-AMC as substrate at 50 uM preincubated for 10 mins followed by substrate addition measured for 5 mins by FRET assay relative to control; conditions: time 15.0 min
# [32] = AUC (0 to 360 min) in Sprague-Dawley rat at 37 umol/kg, iv; format: ADME; conditions: in vivo, 6 h, dose 37 µmol/kg
# [33] = molecular target: Replicase polyprotein 1ab (Severe acute respiratory syndrome coronavirus 2) (UniProt P0DTD1); assay: Binding affinity to SARS-CoV-2 nsp14 assessed as change in melting temperature preincubated for 20 mins followed by heating by thermal shift assay
# [34] = Drug metabolism in Sprague-Dawley rat assessed as circulating drug conjugates by measuring AUC (0 to 360 min) at 37 umol/kg, iv; format: ADME; conditions: in vivo, 6 h, dose 37 µmol/kg
# [35] = test system: Severe acute respiratory syndrome coronavirus 2; assay: Binding affinity to SARS-CoV-2 nsp12 assessed as change in melting temperature preincubated for 20 mins followed by heating by thermal shift assay
# [36] = Inhibition of C-terminal GST-tagged full-length recombinant SARS-CoV 3CLpro expressed in Escherichia coli BL21(DE3) using MCA-AVLQSGFR-Lys(Dnp)-Lys-NH2 as substrate preincubated for 10 mins followed by substrate addition measured for 3.5 mins by FRET assay; set-up: species or system Severe acute respiratory syndrome-related coronavirus
# [37] = molecular target: Replicase polyprotein 1ab (Severe acute respiratory syndrome coronavirus 2) (UniProt P0DTD1); assay: Inhibition of SARS-CoV-2 3CLpro at 100 ug/ml preincubated for 30 mins followed by substrate addition measured after 4 hrs by fluorescence assay relative to control; conditions: dose 100.0 µg/ml, time 4.5 hrs
# [38] = test system: Human coronavirus OC43; assay: Antiviral activity against HCoV-OC43 infected in human HRT-18 cells assessed as inhibition in viral replication at 12.5 ug/ml preincubated with cell culture for 1 hr and further infected with virus for 1 hr followed by removal of virus particles and subsequent replacement of medium containing compound measured for 96 hrs post-infection by RT-PCR analysis relative to control; format: functional, HRT-18 cell line; conditions: Betacoronavirus 1, HRT-18, time 97 hrs
# [39] = Antioxidant activity assessed as DPPH radical scavenging activity at 200 uM measured after 2 mins by ESR spectroscopy relative to control; format: functional
# [40] = molecular target: Replicase polyprotein 1ab (Severe acute respiratory syndrome coronavirus 2, UniProt P0DTD1); assay: Inhibition of SARS-CoV-2 PLpro using Ubiquitin-AMC as substrate by continuous kinetic assay
# Chain of Xanthine dehydrogenase/oxidase (Bos taurus, UniProt P80457) (P80457 whole entry): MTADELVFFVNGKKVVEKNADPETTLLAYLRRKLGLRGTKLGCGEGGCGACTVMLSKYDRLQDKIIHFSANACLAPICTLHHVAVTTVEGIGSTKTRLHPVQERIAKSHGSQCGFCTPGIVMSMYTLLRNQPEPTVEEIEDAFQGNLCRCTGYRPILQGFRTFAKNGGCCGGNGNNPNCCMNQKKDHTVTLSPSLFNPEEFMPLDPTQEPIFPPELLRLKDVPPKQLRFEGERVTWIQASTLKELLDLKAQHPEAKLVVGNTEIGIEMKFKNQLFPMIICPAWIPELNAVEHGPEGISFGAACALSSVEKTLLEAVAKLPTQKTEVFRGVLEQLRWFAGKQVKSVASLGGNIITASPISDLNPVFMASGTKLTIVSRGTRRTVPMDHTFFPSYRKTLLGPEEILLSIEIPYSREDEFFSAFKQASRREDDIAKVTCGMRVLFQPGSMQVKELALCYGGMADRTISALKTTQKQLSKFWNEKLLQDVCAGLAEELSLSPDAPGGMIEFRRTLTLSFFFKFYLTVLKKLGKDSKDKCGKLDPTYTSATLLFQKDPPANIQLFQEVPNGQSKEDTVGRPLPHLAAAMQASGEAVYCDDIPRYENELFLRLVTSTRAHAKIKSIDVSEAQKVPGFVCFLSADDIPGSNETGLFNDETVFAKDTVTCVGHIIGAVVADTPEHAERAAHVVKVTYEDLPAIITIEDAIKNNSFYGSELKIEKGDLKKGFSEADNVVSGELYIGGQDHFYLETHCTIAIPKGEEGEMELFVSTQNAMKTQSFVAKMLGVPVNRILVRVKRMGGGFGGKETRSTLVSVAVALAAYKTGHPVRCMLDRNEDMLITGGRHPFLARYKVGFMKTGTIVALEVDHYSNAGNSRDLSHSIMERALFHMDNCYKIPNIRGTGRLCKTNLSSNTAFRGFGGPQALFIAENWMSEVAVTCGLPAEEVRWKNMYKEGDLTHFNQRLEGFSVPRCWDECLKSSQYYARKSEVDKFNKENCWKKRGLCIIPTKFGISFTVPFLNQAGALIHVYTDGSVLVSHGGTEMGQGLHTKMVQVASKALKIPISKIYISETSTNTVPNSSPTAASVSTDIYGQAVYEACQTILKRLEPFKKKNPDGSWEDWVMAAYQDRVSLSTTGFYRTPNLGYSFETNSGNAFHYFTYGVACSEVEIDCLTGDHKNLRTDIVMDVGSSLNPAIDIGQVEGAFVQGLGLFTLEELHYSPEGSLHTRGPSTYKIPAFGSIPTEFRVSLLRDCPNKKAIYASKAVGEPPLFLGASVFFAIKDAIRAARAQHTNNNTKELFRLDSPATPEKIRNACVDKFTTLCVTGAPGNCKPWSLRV
smiles,measurement,setting,value
O=C(O)[C@H]1O[C@@H](Oc2cc3oc(-c4ccccc4)cc(=O)c3c(O)c2O)[C@H](O)[C@@H](O)[C@@H]1O [BAICALIN],Activity,[1],42%
same,IC50,[2],123 µM
same,CC50 at 96 h,[3],> 100 µM
same,Activity,[4],~90%
same,EC50,[5],83.3 µM
same,inhibition,[6],82%
same,IC50,[7],157 µM
same,EC50,[8],8.8 µM
same,CC50,[9],> 200 µM
same,Activity,[10],97%
same,Activity,[11],17%
same,EC50,[12],10.3 µM
same,CC50 at 96 h,[13],> 100 µM
same,Papp,[14],0.037 ×10⁻⁶ cm/s
same,AUC,[15],1943.7 nM.min/ml
same,solubility,[16],67 µg/mL
same,IC50,[17],7.98 µM
same,CC50 at 72 h,[18],> 1000 µM
same,inhibition,[19],75%
same,IC50,[20],2240 µM
same,Cmax,[21],2.9 nM/ml
same,IC50,[22],120 µM
same,IC50,[23],55.6 µM
same,F,[24],2.2%
O=c1cc(-c2ccccc2)oc2cc(O)c(O)c(O)c12 [BAICALEIN],Activity,[1],69%
same,bioavailability,[25],13.1%
same,solubility,[26],16.8 µg/mL
same,CC50,[27],> 500 µM
same,ΔTm,[28],0.9 °C
same,IC50,[2],7.54 µM
same,CC50 at 96 h,[3],8.6 µM
same,inhibition at 30 µM,[29],14.6%
same,inhibition at 25 µg/mL,[30],89.8%
same,inhibition,[31],< 50%
same,AUC,[32],297.6 nM.min/ml
same,IC50,[7],3.12 µM
same,ΔTm,[33],1.5 °C
same,AUC,[34],927.2 nM.min/ml
same,CC50,[9],> 200 µM
same,ΔTm,[35],3.9 °C
same,IC50,[36],1.18 µM
same,inhibition,[37],94.7%
same,Activity,[11],55%
same,CC50 at 96 h,[13],9.1 µM
same,AUC,[15],2980.5 nM.min/ml
same,inhibition at 12.5 µg/mL,[38],100%
same,Activity,[39],> 50%
same,Cmax,[21],13.6 nM/ml
CC(=O)Nc1ccc(C)c(C(=O)N[C@H](C)c2cccc3ccccc23)c1,IC50,[40],1.73 µM
